Here are results for 3 compounds from US20200239530A1, “COMPOUNDS AND METHODS OF MODULATING PROTEIN DEGRADATION” (Vividion Therapeutics, Inc., priority 2017, published 2020).

What all share (assay): Competitive cysteine profiling of cell lysate with desthiobiotin iodoacetamide probe (96-well sample prep)
What all share (type): binding

In assay [1] the target is T1, cysteine residue illustrated in Table 1A or Table 2A (Homo sapiens, UniProt Q7Z4G1).
T1 construct: Cells were resuspended in cold PBS on ice and sonicated with a probe sonicator to achieve lysis; endogenous in cells
T1 sequence (Q7Z4G1 whole entry): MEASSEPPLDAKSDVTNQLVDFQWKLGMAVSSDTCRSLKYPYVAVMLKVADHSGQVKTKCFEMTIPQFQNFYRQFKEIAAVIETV
As to conditions: UniProt Q7Z4G1; 100 uM. On the procedure: (§1) In some embodiments, the solution sample (e.g., cell sample, cell lysate sample, or comprising isolated proteins) is incubated with a compound of Formula (I) for analysis of protein-probe interactions. In some instances, the solution sample (e.g., cell sample, cell lysate sample, or comprising isolated proteins) is further incubated in the presence of an additional compound probe prior to addition of the compound of Formula (I). […] In such instances, the solution sample is incubated with a probe and a ligand for competitive protein profiling analysis.
(§2) The following 96-well sample prep protocol was used for sample preparation.
(§3) Cells were resuspended in cold PBS on ice and sonicated with a probe sonicator to achieve lysis. 200 μL of lysate containing 5 mg/ml proteome was treated with 2 μL of 100× compound stock in a 2-mL deep-well plate. The treated lysate was subsequently incubate at 25° C. for 1 hr with shaking at 600 rpm. The treated lysate was further incubated with 2 μL of 10 mM desthiobiotin iodoacetamide probe at 25° C. for 1 hr with shaking at 600 rpm. Next, the lysate was further treat with 20 μL of solution of PBS containing 11 mM MgSO4 and 2.5% Turbonuclease stock and incubated at 25° C. for 20 minutes with shaking at 600 rpm. 1.7 mL ice-cold acetone was added to each well and incubated at −20° C. for 2 hr, followed by max speed (4200 rpm) spin for 45 min. Acetone was then decanted and the plates were blotted to remove acetone. The plates were then dried in open air for 20 minutes. After drying, the plates were then covered with foil seal and stored at −80° C. overnight.
(§4) The next day, samples were re-suspended in 90 μL of solution of 9M urea, 50 mM ammonium bicarbonate and 10 mM DTT by incubating at 65C for 20 min with shaking at 1500 rpm. Next, samples were cooled to 37° C. and then 10 μL of 500 mM iodoacetamide solution (92.48 mg/ml) was added. The samples were then incubated at 37° C. for 30 min with shaking at 600 rpm.
(§5) ZEBA desalting plates were equilibrated 4 times using 250 μL of 2M urea, 50 mM ammonium bicarbonate solution followed by centrifugation at 1500 rpm for 2 minutes. After equilibration was complete, samples were applied to ZEBA desalting plate and spin at 1500 rpm for 2 min on top of 1 mL 96-well deep-well collection plate to buffer exchange samples. 4 μL of solution containing 25 mM CaCl2 and 0.25 mg/mL trypsin was added to the plate and the plate was then incubated at 37° C. for 2 hrs with shaking at 600 rpm. 300 μL of solution containing 5% high-capacity streptavidin agarose slurry in 25 mM Tris-HCl pH 7.5, 150 mM NaCl, and 0.1% NP-40 then added. The plate was incubated at 25° C. for 2 hrs with shaking at 600 rpm. Samples were transferred to 25 μm filter plate and spin at 1000 rpm for 2 min. Samples were then washed 3 times with 0.75 mL of wash buffer (25 mM Tris-HCl pH 7.5, 150 mM NaCl, and 0.1% NP-40) followed by washing 3 times with 0.75 mL PBS, and then 4 times with 0.75 mL water. After the washing step, samples were eluted into polypropylene 96-well plate by addition of 250 µL of 50% MeCN/water, 0.1% formic acid and allowed to gravity drip for 10 min, followed by centrifugation at 1000 rpm for 2 min. Speedvac was used to dry the plates at about 45° C. for […]. Then the plates were covered with foil seal and stored at −20° C.
(§6) Samples were resuspended by addition of 20 μl of 12.5% ACN, 0.1% formic acid solution, covered with foil seal, and incubated at 42° C. for 10 minutes with shaking at 600 rpm. Then add 30 μL of 0.1% formic acid solution was added and the plate was covered and incubated at 42° C. for 10 minutes with shaking at 600 rpm. Seal plate was then sealed with a 96-well silicon mat for analysis.

The target of assay [2] is T2, cysteine residue illustrated in Table 1A or Table 2A (Homo sapiens, UniProt Q5H9S7).
T2 construct: Cells were resuspended in cold PBS on ice and sonicated with a probe sonicator to achieve lysis; endogenous in cells
T2 sequence (Q5H9S7 1-520): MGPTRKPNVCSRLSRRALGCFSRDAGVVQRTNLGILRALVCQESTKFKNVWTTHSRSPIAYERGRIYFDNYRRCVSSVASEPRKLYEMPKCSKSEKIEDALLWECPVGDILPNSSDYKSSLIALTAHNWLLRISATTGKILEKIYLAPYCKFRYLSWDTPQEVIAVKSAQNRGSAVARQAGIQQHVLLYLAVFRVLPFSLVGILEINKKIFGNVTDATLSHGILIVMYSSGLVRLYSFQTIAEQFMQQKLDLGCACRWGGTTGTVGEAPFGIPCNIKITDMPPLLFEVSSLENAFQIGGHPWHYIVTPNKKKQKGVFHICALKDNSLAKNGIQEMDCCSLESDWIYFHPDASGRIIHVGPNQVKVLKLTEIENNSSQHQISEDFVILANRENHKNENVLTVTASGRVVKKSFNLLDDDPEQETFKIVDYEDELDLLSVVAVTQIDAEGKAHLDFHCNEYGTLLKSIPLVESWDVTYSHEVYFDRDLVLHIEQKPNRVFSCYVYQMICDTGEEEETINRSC
As to conditions: UniProt Q5H9S7; 100 uM. On the procedure:
as §1, §2, §3, §4, §5, §6

The target of assay [3] is T3, cysteine residue illustrated in Table 1A or Table 2A (Homo sapiens, UniProt O95628).
T3 construct: endogenous in cells
T3 sequence (O95628 1-575): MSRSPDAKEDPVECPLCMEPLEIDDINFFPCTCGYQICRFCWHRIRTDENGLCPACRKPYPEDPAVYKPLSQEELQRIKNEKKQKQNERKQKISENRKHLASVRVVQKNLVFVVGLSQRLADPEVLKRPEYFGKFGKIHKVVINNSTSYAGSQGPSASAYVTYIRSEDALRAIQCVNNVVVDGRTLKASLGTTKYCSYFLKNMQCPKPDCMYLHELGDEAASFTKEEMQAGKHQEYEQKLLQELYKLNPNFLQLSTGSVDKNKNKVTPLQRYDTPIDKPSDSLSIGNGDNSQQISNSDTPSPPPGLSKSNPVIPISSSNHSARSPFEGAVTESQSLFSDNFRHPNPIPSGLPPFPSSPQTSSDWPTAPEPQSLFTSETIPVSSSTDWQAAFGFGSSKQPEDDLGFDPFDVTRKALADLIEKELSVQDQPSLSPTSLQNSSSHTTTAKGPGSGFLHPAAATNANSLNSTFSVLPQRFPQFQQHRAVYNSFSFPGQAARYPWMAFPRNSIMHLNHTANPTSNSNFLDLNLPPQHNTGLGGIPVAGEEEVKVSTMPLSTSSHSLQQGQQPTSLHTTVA
As to conditions: UniProt O95628; 100 uM. How it is done: as §1, §2, §3, §4, §5, §6

Assay [4] addresses T4, cysteine residue illustrated in Table 1A or Table 2A (Homo sapiens, UniProt P40337).
T4 construct: Cells were resuspended in cold PBS on ice and sonicated with a probe sonicator to achieve lysis; endogenous in cells
As to conditions: UniProt P40337. On the procedure: as §1, §2, §3, §4, §5, §6

T4 sequence (P40337 whole entry): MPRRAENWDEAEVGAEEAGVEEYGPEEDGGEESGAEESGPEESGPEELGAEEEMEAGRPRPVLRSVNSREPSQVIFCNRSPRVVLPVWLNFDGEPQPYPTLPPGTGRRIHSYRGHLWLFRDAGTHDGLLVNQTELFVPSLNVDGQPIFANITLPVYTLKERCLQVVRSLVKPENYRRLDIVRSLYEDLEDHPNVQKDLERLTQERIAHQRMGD

On to `COc1ccc2c(c1)CCCN2C(=O)CCl` [KB02], for which the “KB02_100 uM_percent_inhibition” value in assay [1] turned out to be 22%; in assay [2], 69%; in assay [3], 6%; in assay [4] (KB02 100 uM), 12%.

Take `C=CC(=O)N(c1ccccc1)c1ccc(Br)cc1` [KB05]: the “KB05_100 uM_percent_inhibition” value is 33% in assay [1], 54% in assay [2], 94% in assay [3] and 15% in assay [4] (KB05 100 uM). Moreover, in assay [4] (KB05 500 uM), the “KB05_500 uM_percent_inhibition” value is given as 32%.

For `O=C(CCl)Nc1cc(C(F)(F)F)cc(C(F)(F)F)c1` [KBO3], the “KB03_100 uM_percent_inhibition” value is given as 33% in assay [1], 39% in assay [2], 13% in assay [3] and 19% in assay [4] (KB03 100 uM).
